The values below come from patent US10849847B2, “Compositions and methods for treating rosacea and acne” (Foamix Pharmaceuticals Ltd., priority 2016, dated 2020).

Data set [1] in a line: Doxycycline Hyclate Compatibility Test. It counts as physicochemical. The conditions noted are these: for Effect of anti-oxidant on oxidation of Doxycycline Hyclate: waterless medium of propylene glycol and PEG 200. On the procedure: (§1) A similar compatibility study was conducted for Doxycycline Hyclate and Doxycycline Monohydrate.
(§2) Different compositions of hydrophilic and hydrophobic solvents containing Doxycycline Hyclate (Set I and Set II) and Doxycycline Monohydrate (Set III) were prepared by weighing the antibiotic in a glass vial and shaking overnight with each solvent investigated.
Group II included Doxycycline Hyclate mixed with various vehicles with addition of antioxidants like alpha tocopherol, butylated hydroxytoluene (BHT), and ascorbic acid.

The conditions of data set [2]: for Effect of anti-oxidant on oxidation of Minocycline HCl: waterless medium of propylene glycol and PEG 200. On the procedure:
The ratio between MCH and the tested excipient is detailed below. Visual inspection was the major criterion for indication of compatibility. The color of intact MCH suspension is pale yellow; and any change of color (e.g., to dark orange, red, green, brown and black) indicates oxidation or degradation.
Other than hydrogenated castor oil, beeswax, paraffin and hard fat, the aforesaid items listed are oily emollients.
Additives were tested for compatibility with MCH. […] In parallel, antioxidants were added to the MCH suspensions comprising water.

The nature of data set [3]: Doxycycline Monohydrate Compatibility Test. The data set is classed as physicochemical. To be noted: for Effect of anti-oxidant on oxidation of Doxycycline Monohydrate: waterless medium of propylene glycol and PEG 200.
Data set [4] can be described thus: Doxycycline Monohydrate Compatibility Test. The data set is classed as physicochemical. As to the method:
as §1, §2
A similar compatibility test was performed on another form of Doxycycline—Doxycycline Monohydrate.

A further data set deals with papulopustular rosacea. To be noted: cited from earlier work; for IGA = Clear/Almost Clear / Inflammatory Lesions: Mean Absolute Reduction / ≥2 IGA Grade Reduction: Week 16.
For data set [5] the following is noted: in vitro; cited from earlier work.
For data set [6] the following is noted: cited from earlier work.
Where [7] appears, read: mixtures stored at 25° C., 40° C. and 50° C. for two weeks.
The mark [8] stands for this setting: tested after the storage for up to 3 weeks.

Where two headings read alike, the source gives them in different places.

Turning to `CCO` [Ethanol], the results for the “Compatibility with Doxycycline Hyclate” value in data set [1] (setting [7]) and in data set [1] (setting [8]) were “stable” and “Yes”, respectively. In data set [2] (hydrophilic solvents, MCH:excipient 1:250, 25° C. and 40° C., maximum sixty days), the “Compatibility with MCH” value is on record as “incompatible”. Further, in data set [2] (on dissolution / storage), the “Compatibility with Minocycline HCl (observations)” value was “changed their color from yellow to orange”. Also, in data set [2] (setting [8]), the “Compatibility with Minocycline HCl” value is on record as “No”. Besides, the “Compatibility Results” value in data set [3] (Mixtures of 1.04% w/w of Doxycycline Monohydrate stored at 25° C., 40° C., and 50° C. for two weeks) is recorded as “Non compatible”. Besides, the “Visual inspection after the storage at 25° C.” value in data set [3] (Mixtures of 1.04% w/w of Doxycycline Monohydrate, 25° C., two weeks) is on record as “Brown”. The “Visual inspection after the storage at 40° C.” value in data set [3] (Mixtures of 1.04% w/w of Doxycycline Monohydrate, 40° C., two weeks) is reported as “Brown”. The “Visual inspection after the storage at 50° C.” value in data set [3] (Mixtures of 1.04% w/w of Doxycycline Monohydrate, 50° C., two weeks) is given as “Black”. Further, in data set [3] (Mixtures of 1.04% w/w of Doxycycline Monohydrate, T-0), the “Visual inspection at T-0” value is on record as “bright yellow”. Also, the “Compatibility with Doxycycline Monohydrate” value in data set [4] (setting [7]) is “oxidized”; in data set [4] (setting [8]), “No”.

Consider `C[C@H]1c2cccc(O)c2C(=O)C2=C(O)[C@]3(O)C(=O)C(C(N)=O)=C(O)[C@@H](N(C)C)[C@@H]3[C@@H](O)[C@@H]21` [Oracea], for which, in the data set on papulopustular rosacea (Study 1, Active), the “Baseline IGA Moderate” value was 52.8%, the “Baseline IGA Severe” value is 40.9%, the “Inflammatory Lesions: Baseline No. of lesions” value is given as 19.5 and the “IGA = Clear/Almost Clear” value is given as 30.7%. In the data set with papulopustular rosacea (Study 1, Active), the “Inflammatory Lesions: Mean Absolute Reduction” value is −11.8 and the “≥2 IGA Grade Reduction” value is 45.7%. Further, in the data set on papulopustular rosacea (Study 2, Active), the “Baseline IGA Moderate” value is on record as 54.2%, the “Baseline IGA Severe” value is on record as 33.8%, the “Inflammatory Lesions: Baseline No. of lesions” value is recorded as 20.5 and the “IGA = Clear/Almost Clear” value is given as 14.8%. Moreover, in the data set with papulopustular rosacea (Study 2, Active), the “Inflammatory Lesions: Mean Absolute Reduction” value was −9.5 and the “≥2 IGA Grade Reduction” value was 22.5%.

For `Cc1c(C)c2c(c(C)c1O)CC[C@@](C)(CCC[C@H](C)CCC[C@H](C)CCCC(C)C)O2` [alpha-tocopherol], the “Effect of anti-oxidant on oxidation of Doxycycline Hyclate” value in data set [1] is “did not prevent the oxidation”. For the same compound, in data set [2], the “Effect of antioxidant on MCH degradation” value is on record as “did not prevent MCH degradation” and the “Effect of anti-oxidant on oxidation of Minocycline HCl” value is “did not prevent the oxidation”. In data set [3], the “Effect of anti-oxidant on oxidation of Doxycycline Monohydrate” value is “did not prevent the oxidation”.

In the case of `O=C1O[C@H]([C@@H](O)CO)C(O)=C1O` [ascorbic acid], in data set [1], the “Effect of anti-oxidant on oxidation of Doxycycline Hyclate” value was “did not prevent the oxidation”. Besides, the “Effect of anti-oxidant on oxidation of Minocycline HCl” value in data set [2] is “did not prevent the oxidation”. Besides, the “Effect of anti-oxidant on oxidation of Doxycycline Monohydrate” value in data set [3] is reported as “did not prevent the oxidation”.

On to `CN(C)c1ccc(O)c2c1C[C@H]1C[C@H]3[C@H](N(C)C)C(O)=C(C(N)=O)C(=O)[C@@]3(O)C(O)=C1C2=O` [minocycline], for which the “Skin delivery of minocycline on topical administration” value in data set [5] is reported as “appreciable amounts of the drug to its target site of action (the skin)”.

With Doxycycline hyclate, in data set [6], the Lipid solubility result was “high degree of lipid solubility”. In addition, the Solubility result is “soluble” in data set [6] (in solutions of alkali hydroxides and carbonates); “soluble” in data set [6] (in water).
